Laboratory results taken from patent US20080293727A1, “Novel sulfonamide inhibitors of aspartyl protease” (priority 1992, published 2008).

Each compound was assayed against HIV-1 protease (Human immunodeficiency virus type 1 group M subtype B, UniProt P04585) (assay: Inhibition constants against HIV-1 protease (method of Pennington et al.)). Details: HIV-1 protease; read-out: Ki value.
Type: biochemical
Source text: We measured the inhibition constants of the compounds listed in Table VII against HIV-1 protease using the above-cited method of Pennington et al.
For `Cc1nc(C)c(S(=O)(=O)N(CC(C)C)C[C@@H](O)[C@H](Cc2ccccc2)NC(=O)OC(C)(C)C)s1` [Compound 46], the Ki was 154 nM.
For `CC(=O)Nc1ccc(S(=O)(=O)N(CC(C)C)C[C@@H](O)[C@H](Cc2ccccc2)NC(=O)O[C@H]2CCOC2)cc1` [Compound 48, N-(4-(((2 syn,3S)-2-Hydroxy-4-phenyl-3-((S)-tetrahydrofuran-3-yloxycarbonylamino)-butyl)-isobutyl-sulfamoyl)-phenyl)-acetamide], the Ki was 1.4 nM.
`CC(C)CN(C[C@@H](O)[C@H](Cc1ccccc1)NC(=O)OC(C)(C)C)S(=O)(=O)c1ccc(F)cc1F` [Compound 49] was tested, and the Ki was 9 nM.
Compound `CC(=O)Nc1ccc(S(=O)(=O)N(CC(C)C)C[C@@H](O)[C@H](Cc2ccccc2)NC(=O)O[C@H]2CCOC2)cc1Cl` [Compound 53] has a Ki of 27 nM.
Work on `CC(=O)Nc1cc(S(=O)(=O)N(CC(C)C)C[C@@H](O)[C@H](Cc2ccccc2)NC(=O)OC(C)(C)C)ccc1F` [Compound 54] yielded a Ki of 22 nM.
Compound `CC(=O)Nc1cc(S(=O)(=O)N(CC(C)C)C[C@@H](O)[C@H](Cc2ccccc2)NC(=O)c2cc(C(C)(C)C)nn2Cc2ccccc2)ccc1F` [Compound 55] has a Ki of 430 nM.
`CC(C)CN(C[C@@H](O)[C@H](Cc1ccccc1)NC(=O)O[C@@H](C)c1ccccc1)S(=O)(=O)c1cccc2nonc12` [Compound 56] was tested, and the Ki was 60 nM.
For `CC(C)CN(C[C@@H](O)[C@H](Cc1ccccc1)NC(=O)COc1ccccc1)S(=O)(=O)c1cccc2nonc12` [Compound 57], the Ki was 200 nM.
For `CC(C)CN(C[C@@H](O)[C@H](Cc1ccccc1)NC(=O)OC(C)(C)C)S(=O)(=O)c1cccc2nonc12` [Compound 58], the Ki was 34 nM.
`CC(C)CN(C[C@@H](O)[C@H](Cc1ccccc1)NC(=O)O[C@H](C)c1ccccc1)S(=O)(=O)c1cccc2nonc12` [Compound 59] was tested, and the Ki was 206 nM.
`CC(C)CN(C[C@@H](O)[C@H](Cc1ccccc1)NC(=O)O[C@H]1CCOC1)S(=O)(=O)c1cccc2nonc12` [Compound 60] showed a Ki of 4 nM.
`CC(=O)Nc1ccc(S(=O)(=O)N(CC(C)C)C[C@@H](O)[C@H](Cc2ccccc2)NC(=O)OCc2ccccc2)cc1` [Compound 61] was tested, and the Ki was 4 nM.
`CC(C)CN(C[C@@H](O)[C@H](Cc1ccccc1)NC(=O)OCc1ccccc1)S(=O)(=O)c1ccc(N)c([N+](=O)[O-])c1` [Compound 63] gave a Ki of 7 nM.
Compound `CC(C)CN(C[C@@H](O)[C@H](Cc1ccccc1)NC(=O)OC(C)(C)C)S(=O)(=O)c1ccc2nonc2c1` [Compound 64] has a Ki of 3 nM.
In the case of `CC(C)CN(C[C@@H](O)[C@H](Cc1ccccc1)NC(=O)OCc1ccccc1)S(=O)(=O)c1ccc2nonc2c1` [Compound 65], the Ki is reported as 0.7 nM.
Work on `CC(C)CN(C[C@@H](O)[C@H](Cc1ccccc1)NC(=O)O[C@H]1CCOC1)S(=O)(=O)c1ccc2nonc2c1` [Compound 66] yielded a Ki of 0.4 nM.
For `CC(=O)Nc1ccc(S(=O)(=O)N(CC(C)C)C[C@@H](O)[C@H](Cc2ccccc2)NC(=O)C(NC(N)=O)NC(N)=O)cc1` [Compound 67], the Ki was 7400 nM.
Work on `CC(C)CN(C[C@@H](O)[C@H](Cc1ccccc1)NC(=O)O[C@H]1CCOC1)S(=O)(=O)N(C)C` [Compound 69] yielded a Ki of 42 nM.
Compound `CC(=O)Nc1cc(S(=O)(=O)N[C@@H](Cc2ccccc2)[C@H](O)CN(CC(C)C)S(=O)(=O)c2ccc(F)c(NC(C)=O)c2)ccc1F` [Compound 70] has a Ki of 25 nM.
Work on `CC(C)CN(C[C@@H](O)[C@H](Cc1ccccc1)NS(=O)(=O)N(C)C)S(=O)(=O)c1cccc2nonc12` [Compound 71] yielded a Ki of 470 nM.
With `CC(C)CN(C[C@@H](O)[C@H](Cc1ccccc1)NS(=O)(=O)N(C)C)S(=O)(=O)N(C)C` [Compound 72] the Ki was 4000 nM.
`COc1ccc(OC)c(S(=O)(=O)N[C@@H](Cc2ccccc2)[C@H](O)CN(CC(C)C)S(=O)(=O)c2ccc(F)c(NC(C)=O)c2)c1` [Compound 73] gave a Ki of 140 nM.
`CC(C)(C)OC(=O)N[C@@H](Cc1ccccc1)[C@H](O)CN(CC1CC1)S(=O)(=O)c1ccc(F)cc1` [Compound 74] showed a Ki of 11 nM.
With `C=CCOC(=O)N[C@@H](Cc1ccccc1)[C@H](O)CN(CC(C)C)S(=O)(=O)c1ccc(Cl)c(Cl)c1` [Compound 81] the Ki was 2.3 nM.
For `CC(C)CN(C[C@@H](O)[C@H](Cc1ccccc1)NC(=O)OCc1cccnc1)S(=O)(=O)c1ccc2nonc2c1` [Compound 82], the Ki was 1.5 nM.
`CC(C)(C)OC(=O)N[C@@H](Cc1ccccc1)[C@H](O)CN(CC1CCCC1)S(=O)(=O)c1ccc(Cl)c(Cl)c1` [Compound 84] showed a Ki of 1.4 nM.
Work on `CC(=O)Nc1cc(S(=O)(=O)N(CC(C)C)C[C@@H](O)[C@H](Cc2ccccc2)NC(=O)O[C@H]2CCOC2)ccc1F` [Compound 88, N-(2-Fluoro-5-(((2 syn,3S)-2-hydroxy-4-phenyl-3-((S)-tetrahydrofuran-3-yloxycarbonylamino)-butyl)-isobutyl-sulfamoyl)-phenyl)-acetamide] yielded a Ki of 1.4 nM.
`CCCOC(=O)N[C@@H](Cc1ccccc1)[C@H](O)CN(CC(C)C)S(=O)(=O)c1ccc(Cl)c(Cl)c1` [Compound 89] was tested, and the Ki was 2 nM.
`CCCOC(=O)N[C@@H](Cc1ccccc1)[C@H](O)CN(CC(C)C)S(=O)(=O)c1ccc(NC(C)=O)c(Cl)c1` [Compound 90] showed a Ki of 93 nM.
In the case of `CC(=O)Nc1cccc(S(=O)(=O)N(CC(C)C)C[C@@H](O)[C@H](Cc2ccccc2)NC(=O)O[C@H]2CCOC2)c1` [Compound 91, N-(3-(((2 syn,3S)-2-Hydroxy-4-phenyl-3-((S)-tetrahydrofuran-3-yloxycarbonylamino)-butyl)-isobutyl-sulfamoyl)-phenyl)-acetamide], the Ki is reported as 2.5 nM.
`CC(C)CN(C[C@@H](O)[C@H](Cc1ccccc1)NC(=O)O[C@@H]1CCOC1)S(=O)(=O)c1ccc(F)cc1` [Compound 93, 4-Fluoro-N-((2 syn,3S)-2-hydroxy-4-phenyl-3-((R)-tetrahydrofuran-3-yloxycarbonylamino)-butyl)-N-isobutyl-benzenesulfonamide] was tested, and the Ki was 0.8 nM.
For `CC(=O)Nc1ccc(S(=O)(=O)N(CC(C)C)C[C@@H](O)[C@H](Cc2ccccc2)NC(=O)O[C@@H]2CCOC2)cc1` [Compound 94, N-(4-(((syn)-2-Hydroxy-(S)-4-phenyl-3-((tetrahydro-furan-(R)-3-yl)-oxycarbonylamino)-butyl)-isobutyl-sulfamoyl)-phenyl)-acetamide], the Ki was 1.7 nM.
With `CC(C)CN(C[C@@H](O)[C@H](Cc1ccccc1)NC(=O)O[C@H]1CCOC1)S(=O)(=O)c1cc(Cl)c(Cl)s1` [Compound 95] the Ki was 1.3 nM.
Compound `CC(=O)Nc1ccc(COC(=O)N[C@@H](Cc2ccccc2)[C@H](O)CN(CC(C)C)S(=O)(=O)c2ccc(NC(C)=O)cc2)cc1` [Compound 96] has a Ki of 8 nM.
For `CC(C)CN(C[C@@H](O)[C@H](Cc1ccccc1)NC(=O)OCc1cccnc1)S(=O)(=O)c1ccc(F)cc1` [Compound 98, 4-Fluoro-N-((2 syn,3S)-2-hydroxy-4-phenyl-3-(pyridin-3-yl-methoxycarbonylamino)-butyl)-N-isobutyl-benzenesulfonamide], the Ki was 0.5 nM.
Compound `CC(C)CN(C[C@@H](O)[C@H](Cc1ccccc1)NC(=O)O[C@H]1CCOC1)S(=O)(=O)c1ccc(Cl)cc1` [Compound 99, 4-Chloro-N-((2 syn,3S)-2-hydroxy-4-phenyl-3-((S)-tetrahydrofuran-3-yloxycarbonylamino)-butyl)-isobutyl-benzenesulfonamide] has a Ki of 0.24 nM.
With `COc1ccc(S(=O)(=O)N(CC(C)C)C[C@@H](O)[C@H](Cc2ccccc2)NC(=O)O[C@H]2CCOC2)cc1` [Compound 100, N-((2 syn,3S)-2-Hydroxy-4-phenyl-3-((S)-tetrahydrofuran-3-yloxycarbonylamino)-butyl)-N-isobutyl-4-methoxy-benzenesulfonamide] the Ki was 0.16 nM.
Work on `CC(=O)Nc1ccc(S(=O)(=O)N(C)C[C@@H](O)[C@H](Cc2ccccc2)NC(=O)O[C@H]2CCOC2)cc1` [Compound 101] yielded a Ki of 250 nM.
With `COC(=O)N[C@@H](Cc1ccccc1)[C@H](O)CN(CC(C)C)S(=O)(=O)c1ccc(NC(C)=O)cc1` [Compound 102] the Ki was 33 nM.
For `COC(=O)N[C@@H](Cc1ccccc1)[C@H](O)CN(CC(C)C)S(=O)(=O)c1ccc(Cl)c(Cl)c1` [Compound 103], the Ki was 4.5 nM.
`COC(=O)N[C@@H](Cc1ccccc1)[C@H](O)CN(CC(C)C)S(=O)(=O)c1ccc(F)cc1` [Compound 104] gave a Ki of 5.5 nM.
Compound `C=C(C)COC(=O)N[C@@H](Cc1ccccc1)[C@H](O)CN(CC(C)C)S(=O)(=O)c1ccc(NC(C)=O)cc1` [Compound 105] has a Ki of 7.5 nM.
`C=C(C)COC(=O)N[C@@H](Cc1ccccc1)[C@H](O)CN(CC(C)C)S(=O)(=O)c1ccc(Cl)c(Cl)c1` [Compound 106] was tested, and the Ki was 1.4 nM.
In the case of `C=C(C)COC(=O)N[C@@H](Cc1ccccc1)[C@H](O)CN(CC(C)C)S(=O)(=O)c1ccc(F)cc1` [Compound 107], the Ki is reported as 1.4 nM.
With `CC(C)CN(C[C@@H](O)[C@H](Cc1ccccc1)NC(=O)OC[C@@H]1COC(=O)N1)S(=O)(=O)c1ccc(F)cc1` [Compound 109, 4-Fluoro-N-(2-(syn)-hydroxy-3-((2-oxazolidon-(S)-4-yl)-methoxycarbonylamino)-4-(S)-phenyl-butyl)-N-isobutyl-benzenesulfonamide] the Ki was 6 nM.
Work on `CC(=O)Nc1ccc(S(=O)(=O)N(CC(C)C)CC(O)C(Cc2ccccc2)NC(=O)OCC2COC(=O)N2)cc1` (centres unmarked) [Compound 110] yielded a Ki of 28 nM.
`O=C(N[C@@H](Cc1ccccc1)[C@H](O)CN(CC1CCCC1)S(=O)(=O)c1ccc(F)cc1)OCc1cccnc1` [Compound 111] showed a Ki of 0.3 nM.
With `CC(C)CN(C[C@@H](O)[C@H](Cc1ccccc1)NC(=O)O[C@H]1CCOC1)S(=O)(=O)c1cccc(S(N)(=O)=O)c1` [Compound 112, Benzene-1,3-disulfonic acid 1-amide 3-((2 syn,3S)-2-hydroxy-4-phenyl-3-(3-(S)-tetrahydrofuran-3-yloxycarbonylamino)-butyl)-isobutyl-amide] the Ki was 4 nM.
`CC(C)CN(C[C@@H](O)[C@H](Cc1ccccc1)NC(=O)O[C@H]1CCOC1)S(=O)(=O)c1ccoc1` [Compound 113] showed a Ki of 3 nM.
`C=CCOC(=O)N[C@@H](Cc1ccccc1)[C@H](O)CN(CC1CCCC1)S(=O)(=O)c1ccc(F)cc1` [Compound 114, N-((3-Allyloxycarbonylamino)-(2 syn,3S)-2-hydroxy-4-phenyl-butyl)-N-cyclopentylmethyl-4-fluoro-benzenesulfonamide] was tested, and the Ki was 0.35 nM.
